Data: PubChem BioAssay AID1996
Values after ≈ are worked out from the molar mass of the structure shown.

Details: buffer; pH 7.4; 200.0 µM

SMILES | solubility kinetic [µg/mL]
Cc1cc(Br)ccc1OCC(=O)NC1CCCC1 | 31.4 (≈ 101 µM)
Cc1cc(NC(=O)C(C)Oc2ccc(C(C)(C)C)cc2)no1 (centres undefined) | 4 (≈ 13.2 µM)
COc1ccc(CSc2ncnc3sccc23)cc1F | < 0.3
COCCN(CCOC)C(=O)Nc1ccc(Cl)cc1 | > 43
Cl.O=C(NCCN1CCCC1)c1ccc(Cl)cc1Cl | > 48.5
Cc1ccc(S(=O)(=O)Nc2nc3ccccc3nc2N2CCOCC2)cc1 | > 57.7
Fc1cccc(F)c1/C=N/N1CCOCC1 | > 33.9
CCOC(=O)c1ccc(CN2C(=O)c3ccccc3S2(=O)=O)cc1 | 0.9 (≈ 2.61 µM)
Cc1ccccc1NC(=O)CSc1nc2scc(C)c2c(=O)[nH]1 | 1.4 (≈ 4.05 µM)
COc1cc(OC)c(C=O)c(OC(=O)N(C)C)c1 | 35.8 (≈ 141 µM)
CC(C)Cc1ccc(C(=O)NCCOc2ccccc2)o1 | 29.2 (≈ 102 µM)
Cc1ccc(/C=N/NC(=O)c2cccnc2)s1 | > 36.8
COc1ccc(NC(=O)c2ccc(S(=O)(=O)N3CCCCC3)cc2)cc1OC | 5.5 (≈ 13.6 µM)
Cc1c(C)n(Cc2ccccc2)c2ncnc(NCCCN(C)C)c12 | > 50.6
CC1CCCC(C)N1C(=O)COC(=O)CNC(=O)c1ccccc1 (centres undefined) | > 49.9
O=C(CCCNC(=O)c1ccc(Cl)cc1)Nc1ccccc1F | 33.5 (≈ 100 µM)
COc1ccc(OC)c(-c2c3c([nH]c(=S)c2C#N)CCCC3)c1 | 10.4 (≈ 31.9 µM)
c1ccc(-n2cnc3cc(NCc4ccco4)ccc32)cc1 | 35.5 (≈ 123 µM)
CC(C)C(=O)Nc1c(-c2cccc(Cl)c2)c(=O)c2ccccc2n1C | 10.1 (≈ 28.5 µM)
CCc1cccc(C)c1N1C(=O)CN(Cc2ccccc2)C1=S | 12.1 (≈ 37.3 µM)

SMILES | solubility kinetic [µg/mL]
CC(=O)Nc1ccc(NC(=O)COC(=O)c2ccccn2)cc1 | > 47
NS(=O)(=O)c1ccc(CNC(=S)NC2CCCC2)cc1 | 46.9 (≈ 150 µM)
CCn1c(C)nnc1SCC(=O)Nc1ccccc1Cl | > 46.6
COCCCNc1nc(-c2ccc(Cl)cc2)nc2ccccc12 | 4.3 (≈ 13.1 µM)
CCOC(=O)C1CCN(C(=O)c2cc3c(C)cc(C)cc3[nH]2)CC1 | 7.7 (≈ 23.4 µM)
CC(C)Oc1nc(-c2ccc(Cl)cc2)nc2ccccc12 | < 0.3
CCN(CC(=O)NCc1cccs1)C(=O)Cc1ccc(C)c(C)c1 | > 51.7
CC(=O)c1ccc(NC(=S)N2CCN(CCO)CC2)cc1 | > 46.1
O=C(CSc1ncccn1)NC1CCS(=O)(=O)C1 (centres undefined) | 39.7 (≈ 138 µM)
CCc1cc(C(=O)NCC2CCCO2)sc1C (centres undefined) | > 38
C=CCOc1nc2c(c(=O)n(C)c(=O)n2C)n1Cc1ccccc1 | 8.2 (≈ 25.1 µM)
CC(C)CC(=O)Nc1sc2c(c1C(=O)O)CCCCC2 | 42 (≈ 142 µM)
Cc1cccc(C)c1NC(=O)CNC(=O)Cc1ccccc1[N+](=O)[O-] | 18.2 (≈ 53.3 µM)
COc1ccc(CNc2ccc([N+](=O)[O-])cn2)cc1 | 3 (≈ 11.6 µM)
O=C(Nc1ccc2[nH]c(=O)[nH]c2c1)Nc1ccc(F)cc1F | 3.7 (≈ 12.2 µM)
CC(C)N1C(=O)N(c2cccc(Cl)c2)C(C)(O)CC1(C)C (centres undefined) | > 46.6
CC(C)c1ccc(S(=O)(=O)N2CCN(C(=O)CN3C(=O)c4ccccc4C3=O)CC2)cc1 | 3.1 (≈ 6.81 µM)
CCOC(=O)C1=C(C)OC(N)=C(C#N)C1c1cccc(C)c1 (centres undefined) | 43.7 (≈ 146 µM)
Cc1cccc(/C=N/NC(=O)c2ccncc2)n1 | > 36
COc1cc2c(cc1OC)CN(C(=O)CSc1ccccc1C)CC2 | > 53.6

SMILES | solubility kinetic [µg/mL]
COc1ccc(NC(=S)NC(=O)C2CCC2)cc1 | 7.7 (≈ 29.1 µM)
CN(C)C(=O)Oc1ccc2c(c1)O/C(=C\c1ccccc1)C2=O | 0.8 (≈ 2.59 µM)
Cc1ccc(C)c(N2CC(C(=O)Nc3cc(C)on3)CC2=O)c1 (centres undefined) | 40.3 (≈ 129 µM)
CCOC(=O)Cn1c(=O)oc2ccc(C)cc21 | > 35.3
CC(=O)c1ccc(N2CCCCC2)c(F)c1 | 12.1 (≈ 54.7 µM)
Brc1cc(Br)c2nc3c(cc2c1)CCC3 | 1.9 (≈ 5.81 µM)
CCCn1c(N)c(C(=O)COC(=O)/C=C/c2ccc(OC(F)F)c(OC)c2)c(=O)[nH]c1=O | 9 (≈ 19.9 µM)
COc1ccc(C)cc1NC(=O)Nc1ccc2c(c1)CCC2 | 0.7 (≈ 2.36 µM)
COCCNC(=O)c1ccc(CSc2nc3ccccc3s2)cc1 | 27.6 (≈ 77 µM)
CCOC(=O)C1CCN(Cc2cc(=O)oc3cc(C)ccc23)CC1 | 43.1 (≈ 131 µM)
COc1ccccc1Nc1nc(NCC(C)C)nc(N)c1[N+](=O)[O-] | 0.3 (≈ 0.903 µM)
CC(C)N1CCC(=NNC(=O)c2cccs2)CC1 | > 39.8
COc1ccc(NC(=O)CNC(=O)c2cccs2)cc1Cl | 2.7 (≈ 8.31 µM)
CC(C)(C)c1ccc(C(=O)NC(=S)N2CCCCCC2)cc1 | 10.1 (≈ 31.7 µM)
Cc1cc(C)cc(C(=O)Nc2cccnc2)c1 | > 33.9
Cc1ccc(S(=O)(=O)NCCNc2ccccc2[N+](=O)[O-])cc1 | 1.1 (≈ 3.28 µM)
Cc1ccc(-c2cn3cc(C)ccc3n2)cc1 | 1.6 (≈ 7.2 µM)
O=C(O)c1ccc(N2C(=O)CCCC2=O)cc1 | 25.9 (≈ 111 µM)
O=S(=O)(c1c(Cl)cc(Br)cc1Cl)N1CCN(C(=S)NC2CC2)CC1 | 5.3 (≈ 11.2 µM)
